This note sets out measurements from patent publication US11207325B2, “Triazolopyrimidine compounds and uses thereof” (Novartis AG, priority 2014, dated 2021).

The test system of this assay is H3K27 methylation in G401 cell. In words: ELISA (H3K27 methylation) assay. The assay is classed as cell-based. The conditions noted are these: Homo sapiens, G-401; ELISA Qualified assay (H3K27 methylation); read-out: (c) IC50 (μM), ELISA Qualified. From the text: ELISA (H3K27 Methylation) Assay
In general terms: ELISA stands for enzyme-linked immunosorbent assay.

The term IC50 denotes the concentration that gives 50% inhibition.

For `CCn1nccc1-c1cnc(NCc2c(F)ccc3c2CCO3)n2cnnc12` [Example 143, 8-(1-ethyl-1H-pyrazol-5-yl)-N-((5-fluoro-2,3-dihydrobenzofuran-4-yl)methyl)-[1,2,4]triazolo[4,3-c]pyrimidin-5-amine], the IC50 worked out at 0.0106 µM. `CC(C)n1nccc1-c1cnc(NCc2c(F)ccc3c2CCO3)n2cnnc12` [Example 144, N-((5-fluoro-2,3-dihydrobenzofuran-4-yl)methyl)-8-(1-isopropyl-1H-pyrazol-5-yl)-[1,2,4]triazolo[4,3-c]pyrimidin-5-amine]: the IC50 turned out to be 0.0683 µM. For `COc1cc(-c2cnc(NCc3c(F)ccc4c3CCO4)n3cnnc23)ccn1` [Example 145, N-((5-fluoro-2,3-dihydrobenzofuran-4-yl)methyl)-8-(2-methoxypyridin-4-yl)-[1,2,4]triazolo[4,3-c]pyrimidin-5-amine], the IC50 stood at 0.0052 µM. The same measure for `Fc1ccc2c(c1CNc1ncc(-c3ccc(Cl)cc3Cl)c3nncn13)CCO2` [Example 146, 8-(2,4-dichlorophenyl)-N-((5-fluoro-2,3-dihydrobenzofuran-4-yl)methyl)-[1,2,4]triazolo[4,3-c]pyrimidin-5-amine]: 0.0744 µM; for `Cn1cc(-c2cnc(NCc3c(F)ccc4c3CCO4)n3cnnc23)cn1` [Example 147, N-((5-fluoro-2,3-dihydrobenzofuran-4-yl)methyl)-8-(1-methyl-1H-pyrazol-4-yl)-[1,2,4]triazolo[4,3-c]pyrimidin-5-amine]: 0.0113 µM; for `CC(C)n1cc(-c2cnc(NCc3c(F)ccc4c3CCO4)n3cnnc23)c(C(F)(F)F)n1` [Example 148, N-((5-fluoro-2,3-dihydrobenzofuran-4-yl)methyl)-8-(1-isopropyl-3-(trifluoromethyl)-1H-pyrazol-4-yl)-[1,2,4]triazolo[4,3-c]pyrimidin-5-amine]: 0.0252 µM. For `c1cc(CNc2ncc(-c3cnn(C4CC4)c3)c3nncn23)c2c(c1)OCC2` [Example 149, 8-(1-cyclopropyl-1H-pyrazol-4-yl)-N-((2,3-dihydrobenzofuran-4-yl)methyl)-[1,2,4]triazolo[4,3-c]pyrimidin-5-amine], the IC50 was found to be 0.22 µM. As to `Fc1ccc2c(c1CNc1ncc(-c3cnn(C4CC4)c3)c3nncn13)CCO2` [Example 150, 8-(1-cyclopropyl-1H-pyrazol-4-yl)-N-((5-fluoro-2,3-dihydrobenzofuran-4-yl)methyl)-[1,2,4]triazolo[4,3-c]pyrimidin-5-amine], the half-maximal inhibitory concentration (IC50) was found to be 0.0148 µM. The same measure for `Cc1nn(C(C)C)c(C)c1-c1cnc(NCc2c(F)ccc3c2CCO3)n2cnnc12` [Example 151, N-((5-fluoro-2,3-dihydrobenzofuran-4-yl)methyl)-8-(1-isopropyl-3,5-dimethyl-1H-pyrazol-4-yl)-[1,2,4]triazolo[4,3-c]pyrimidin-5-amine]: 0.0086 µM. With `Cn1nccc1-c1cnc(NCc2cccc3c2CCO3)n2cnnc12` [Example 152, N-((2,3-dihydrobenzofuran-4-yl)methyl)-8-(1-methyl-1H-pyrazol-5-yl)-[1,2,4]triazolo[4,3-c]pyrimidin-5-amine], the IC50 is 0.008 µM. The same measure for `Cc1nn(C(C)C)c(C)c1-c1cnc(NCc2cccc3c2CCO3)n2cnnc12` [Example 153, N-((2,3-dihydrobenzofuran-4-yl)methyl)-8-(1-isopropyl-3,5-dimethyl-1H-pyrazol-4-yl)-[1,2,4]triazolo[4,3-c]pyrimidin-5-amine]: 0.0073 µM; for `FC(F)c1ccc(-c2cnc(NCc3cccc4c3CCO4)n3cnnc23)cn1` [Example 154, 8-(6-(difluoromethyl)pyridin-3-yl)-N-((2,3-dihydrobenzofuran-4-yl)methyl)-[1,2,4]triazolo[4,3-c]pyrimidin-5-amine]: 0.0968 µM; for `COc1ccc(-c2cnc(NCc3c(F)ccc4c3CCO4)n3cnnc23)c(C)n1` [Example 155, N-((5-fluoro-2,3-dihydrobenzofuran-4-yl)methyl)-8-(6-methoxy-2-methylpyridin-3-yl)-[1,2,4]triazolo[4,3-c]pyrimidin-5-amine]: 0.078 µM. Under `Cc1nc(N)ccc1-c1cnc(NCc2c(F)ccc3c2CCO3)n2cnnc12` [Example 156, 8-(6-amino-2-methylpyridin-3-yl)-N-((5-fluoro-2,3-dihydrobenzofuran-4-yl)methyl)-[1,2,4]triazolo[4,3-c]pyrimidin-5-amine] stands 0.0261 µM; under `Fc1ccc(-c2cnc(NCc3c(F)ccc4c3CCO4)n3cnnc23)c(Cl)c1` [Example 157, 8-(2-chloro-4-fluorophenyl)-N-((5-fluoro-2,3-dihydrobenzofuran-4-yl)methyl)-[1,2,4]triazolo[4,3-c]pyrimidin-5-amine], 0.445 µM. The same measure for `Cc1nn(CCO)c(C)c1-c1cnc(NCc2c(F)ccc3c2CCO3)n2cnnc12` [Example 158, 2-(4-(5-(((5-fluoro-2,3-dihydrobenzofuran-4-yl)methyl)amino)-[1,2,4]triazolo[4,3-c]pyrimidin-8-yl)-3,5-dimethyl-1H-pyrazol-1-yl)ethanol]: 0.0067 µM; for `Fc1ccc2c(c1CNc1ncc(-c3ccncc3Cl)c3nncn13)CCO2` [Example 162, 8-(3-chloropyridin-4-yl)-N-((5-fluoro-2,3-dihydrobenzofuran-4-yl)methyl)-[1,2,4]triazolo[4,3-c]pyrimidin-5-amine]: 0.0273 µM. As to `Cc1ccc(-c2cnc(NCc3c(F)ccc4c3CCO4)n3cnnc23)c(C)n1` [Example 167, 8-(2,6-dimethylpyridin-3-yl)-N-((5-fluoro-2,3-dihydrobenzofuran-4-yl)methyl)-[1,2,4]triazolo[4,3-c]pyrimidin-5-amine], the IC50 was determined as 0.0393 µM. Consider `Fc1ccc2c(c1CNc1ncc(-c3cccnc3C(F)F)c3nncn13)CCO2` [Example 168, 8-(2-(difluoromethyl)pyridin-3-yl)-N-((5-fluoro-2,3-dihydrobenzofuran-4-yl)methyl)-[1,2,4]triazolo[4,3-c]pyrimidin-5-amine], for which the IC50 was determined as 0.002 µM. The same measure for `Cn1nccc1-c1cnc(NCc2c(F)ccc3c2CCO3)n2cnnc12` [Example 169, N-((5-fluoro-2,3-dihydrobenzofuran-4-yl)methyl)-8-(1-methyl-1H-pyrazol-5-yl)-[1,2,4]triazolo[4,3-c]pyrimidin-5-amine]: 0.0029 µM. The same measure for `Cn1cc(-c2cnc(NCc3c(F)ccc4c3CCO4)n3cnnc23)c(C(F)(F)F)n1` [Example 170, N-((5-fluoro-2,3-dihydrobenzofuran-4-yl)methyl)-8-(1-methyl-3-(trifluoromethyl)-1H-pyrazol-4-yl)-[1,2,4]triazolo[4,3-c]pyrimidin-5-amine]: 0.0232 µM. The same measure for `CC(=O)NCc1ccc(-c2cnc(NCc3c(F)ccc4c3CCO4)n3cnnc23)cn1` [Example 171, N-((5-(5-(((5-fluoro-2,3-dihydrobenzofuran-4-yl)methyl)amino)-[1,2,4]triazolo[4,3-c]pyrimidin-8-yl)pyridin-2-yl)methyl)acetamide]: 0.0265 µM; for `Cc1c(-c2cnc(NCc3c(F)ccc4c3CCO4)n3cnnc23)cnn1C` [Example 172, 8-(1,5-dimethyl-1H-pyrazol-4-yl)-N-((5-fluoro-2,3-dihydrobenzofuran-4-yl)methyl)-[1,2,4]triazolo[4,3-c]pyrimidin-5-amine]: 0.0044 µM.
